According to patent publication US20260200928A1, “THERAPEUTIC COMPOUNDS” (Sanofi, priority 2022, published 2026):

Target: T1, human IL-17A (Homo sapiens, UniProt Q16552)
T1 construct: purchased R&D Systems 7955-IL/CF
T1 sequence (Q16552 24-155): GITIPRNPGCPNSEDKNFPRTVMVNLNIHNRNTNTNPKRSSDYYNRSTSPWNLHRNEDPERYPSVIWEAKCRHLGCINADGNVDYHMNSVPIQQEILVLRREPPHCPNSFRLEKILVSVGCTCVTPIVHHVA
Assay: IL-17A AlphaLISA competition assay (block of IL-17A binding to its receptor IL-17RA)
Conditions: mean IC50 (n≥2), block of IL-17A binding to IL-17RA
Procedure, shortened: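 Bead-based AlphaLISA competition in PBS with 0.05% Tween-20 and 0.1% BSA: compound first meets human IL-17A (7.5 nM stock) for 30 min, then IL-17RA/Fc (5 nM stock) for 90 min, all at room temperature, before acceptor/donor bead capture. IC50 fitted 4-parameter, DMSO and 4 μM reference inhibitor as controls; at least duplicate.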

Row | Compound | IC50
1 | COCC(NC(=O)CCC(F)(F)F)c1ccnc(NC(=O)[C@@H](NC(=O)OC(C)(C)C)C2CCC(F)(F)CC2)c1 (single isomer, unassigned; diastereomer 1) [Example 131] | 680 nM
2 | COC[C@H](c1ccnc(NC(=O)[C@@H](NC(=O)c2nonc2C2CC2)C(C2CC2)C2CC2)c1)N1C[C@@H](C(F)(F)F)NC1=O [Example 227, 4-cyclopropyl-N-((S)-1,1-dicyclopropyl-3-((4-((S)-2-methoxy-1-((S)-2-oxo-4-(trifluoromethyl)imidazolidin-1-yl)ethyl)pyridin-2-yl)amino)-3-oxopropan-2-yl)-1,2,5-oxadiazole-3-carboxamide] | 20 nM
3 | CC(C)n1nccc1C(=O)N[C@H](C(=O)Nc1cc(CN2C[C@@H](C(F)(F)F)NC2=O)ccn1)C1CCC(F)(F)CC1 [Example 12, N-((S)-1-(4,4-difluorocyclohexyl)-2-oxo-2-((4-(((S)-2-oxo-4-(trifluoromethyl)imidazolidin-1-yl)methyl)pyridin-2-yl)amino)ethyl)-1-isopropyl-1H-pyrazole-5-carboxamide] | 106 nM
4 | CC(C)c1nocc1C(=O)N[C@H](C(=O)Nc1cc(CN2C[C@@H](C(F)(F)F)NC2=O)ccn1)[C@@H](C)OC(C)(C)C [Example 130, N-((2S,3R)-3-(tert-butoxy)-1-oxo-1-((4-(((S)-2-oxo-4-(trifluoromethyl)-imidazolidin-1-yl)methyl)-pyridin-2-yl)amino)butan-2-yl)-3-isopropyl-isoxazole-4-carboxamide] | 350 nM
5 | COCC(NC(=O)CCC(F)(F)F)c1ccnc(NC(=O)[C@@H](NC(=O)c2ccnn2C)C2CCC(F)(F)CC2)c1 (single isomer, unassigned) [Example 136] | 252 nM
6 | 4-ethyl-N-(1-(4-fluorocyclohexyl)-2-((4-((S)-2-methoxy-1-((S)-2-oxo-4-(trifluoromethyl)imidazolidin-1-yl)ethyl)pyridin-2-yl)amino)-2-oxoethyl)-1,2,5-oxadiazole-3-carboxamide [Example 285] | 17 nM
7 | C[C@@H](OC(C)(C)C)[C@H](NC(=O)OCc1ccccc1)C(=O)Nc1cc(CN2C[C@@H](C(F)(F)F)NC2=O)ccn1 [Example 101, benzyl ((2S,3R)-3-(tert-butoxy)-1-oxo-1-((4-(((S)-2-oxo-4-(trifluoromethyl)imidazolidin-1-yl)methyl)pyridin-2-yl)amino)butan-2-yl)carbamate] | 5390 nM
8 | O=C(CCC(F)(F)F)NC(c1ccnc(NC(=O)[C@@H](NC(=O)c2nonc2C2CC2)C(C2CC2)C2CC2)c1)C1CC1 (single isomer, unassigned) [Example 39] | 138 nM
9 | CC(C)n1nccc1C(=O)N[C@H](C(=O)Nc1cc(O[C@@H]2C[C@@H](C(F)(F)F)NC2=O)ccn1)[C@H]1CC[C@H](C)CC1 [Example 323, 1-isopropyl-N—((S)-1-((1r,4S)-4-methylcyclohexyl)-2-oxo-2-((4-(((3R,5S)-2-oxo-5-(trifluoromethyl)pyrrolidin-3-yl)oxy)pyridin-2-yl)amino)ethyl)-1H-pyrazole-5-carboxamide] | 1210 nM
10 | Cn1nccc1C(=O)N[C@H](C(=O)Nc1cc(CN2C[C@@H](C(F)(F)F)NC2=O)ccn1)C1CCC(F)(F)CC1 [Example 9, N-((S)-1-(4,4-difluorocyclohexyl)-2-oxo-2-((4-(((S)-2-oxo-4-(trifluoromethyl)imidazolidin-1-yl)methyl)pyridin-2-yl)amino)ethyl)-1-methyl-1H-pyrazole-5-carboxamide] | 422 nM
11 | COC[C@H](c1ccnc(NC(=O)[C@@H](NC(=O)c2nocc2C)C2CCC(F)(F)CC2)c1)N1C[C@@H](C(F)(F)F)NC1=O [Example 196, N-((S)-1-(4,4-difluorocyclohexyl)-2-((4-((S)-2-methoxy-1-((S)-2-oxo-4-(trifluoromethyl)imidazolidin-1-yl)ethyl)pyridin-2-yl)amino)-2-oxoethyl)-4-methylisoxazole-3-carboxamide] | 39 nM
12 | COCC(c1ccnc(NC(=O)[C@@H](NC(=O)c2ccnn2C(C)C)[C@H]2CC[C@H](C)CC2)c1)N1C[C@@H](C(F)(F)F)NC1=O (single isomer, unassigned) [Example 87] | 13 nM
13 | COC[C@H](c1ccnc(NC(=O)[C@@H](NC(=O)c2ccnn2C(C)C)C2CCC(F)(F)CC2)c1)N1CC(F)(F)CNC1=O [Example 181, N-((S)-2-((4-((S)-1-(5,5-difluoro-2-oxotetrahydropyrimidin-1(2H)-yl)-2-methoxyethyl)pyridin-2-yl)amino)-1-(4,4-difluorocyclohexyl)-2-oxoethyl)-1-isopropyl-1H-pyrazole-5-carboxamide] | 102 nM
14 | Cc1nonc1C(=O)N[C@H](C(=O)Nc1cc(CN2C[C@@H](C(F)(F)F)NC2=O)ccn1)[C@@H](C)OC(C)(C)C [Example 128, N-((2S,3R)-3-(tert-butoxy)-1-oxo-1-((4-(((S)-2-oxo-4-(trifluoromethyl)-imidazolidin-1-yl)methyl)-pyridin-2-yl)amino)butan-2-yl)-4-methyl-1,2,5-oxa-diazole-3-carboxamide] | 2350 nM
15 | CCc1nocc1C(=O)N[C@H](C(=O)Nc1cc([C@@H](COC)N2C[C@@H](C(F)(F)F)NC2=O)ccn1)[C@H]1CCCC(F)(F)C1 (single isomer, unassigned) [Example 306] | 47 nM
16 | COC[C@H](c1ccnc(NC(=O)[C@@H](NC(=O)c2conc2C)C2CCC(F)(F)CC2)c1)N1C[C@@H](C(F)(F)F)NC1=O [Example 194, N-((S)-1-(4,4-difluorocyclohexyl)-2-((4-((S)-2-methoxy-1-((S)-2-oxo-4-(trifluoromethyl)imidazolidin-1-yl)ethyl)pyridin-2-yl)amino)-2-oxoethyl)-3-methylisoxazole-4-carboxamide] | 68 nM
17 | O=C(CCC(F)(F)F)NC(c1ccnc(NC(=O)C(NC(=O)c2nonc2C2CC2)C2CCC(F)(F)CC2)c1)C1CC1 (stereo not drawn) [Example 46, 4-cyclopropyl-N-(2-((4-(cyclopropyl(4,4,4-trifluorobutan-amido)methyl)pyridin-2-yl)amino)-1-(4,4-difluorocyclohexyl)-2-oxoethyl)-1,2,5-oxadiazole-3-carboxamide] | 612 nM

Continued by falling IC50, values first:

Row | IC50 | Compound
18 | 12000 nM | CCn1nccc1C(=O)NC(C(=O)Nc1cc(Cc2cccc(=O)n2C)ccn1)C1CCC(F)(F)CC1 (stereo not drawn) [Example 36, N-(1-(4,4-difluorocyclohexyl)-2-((4-((1-methyl-6-oxo-1,6-dihydro-pyridin-2-yl)methyl)pyridin-2-yl)amino)-2-oxoethyl)-1-ethyl-1H-pyrazole-5-carboxamide]
19 | 10400 nM | CC(C)(C)OC(=O)N[C@H](C(=O)Nc1cc(COC(=O)NCC(F)(F)F)ccn1)[C@H]1CC[C@H](C)CC1 [Example 26, Tert-butyl ((S)-1-((1r,4S)-4-methylcyclohexyl)-2-oxo-2-((4-((((2,2,2-trifluoroethyl)carbamoyl)oxy)methyl)pyridin-2-yl)amino)ethyl)carbamate]
20 | 1960 nM | COCC(c1ccnc(NC(=O)[C@@H](NC(=O)c2ncccc2C)[C@H]2CC[C@H](C)CC2)c1)N1C[C@@H](C(F)(F)F)NC1=O (stereo partly drawn) [Example 98, N-((1S)-2-((4-(2-Methoxy-1-((S)-2-oxo-4-(trifluoromethyl)imidazolidin-1-yl)ethyl)pyridin-2-yl)amino)-1-((1r,4S)-4-methylcyclohexyl)-2-oxoethyl)-3-methyl-picolinamide]
21 | 1400 nM | Cc1nonc1C(=O)N[C@H](C(=O)Nc1cc(CN2C[C@@H](C(F)(F)F)NC2=O)c(F)cn1)[C@H]1CC[C@H](C)CC1 [Example 62, N-((S)-2-((5-fluoro-4-(((S)-2-oxo-4-(trifluoromethyl)-imidazolidin-1-yl)methyl)-pyridin-2-yl)amino)-1-((1r,4S)-4-methylcyclo-hexyl)-2-oxoethyl)-4-methyl-1,2,5-oxadiazole-3-carboxamide]
22 | 615 nM | CCc1nocc1C(=O)N[C@H](C(=O)Nc1cc(C(NC(=O)CCC(F)(F)F)C2CC2)ccn1)C1CCC(F)(F)CC1 (stereo partly drawn) [Example 161, N-((1S)-2-((4-(cyclopropyl(4,4,4-trifluorobutanamido)methyl)pyridin-2-yl)amino)-1-(4,4-difluorocyclohexyl)-2-oxoethyl)-3-ethylisoxazole-4-carboxamide]
23 | 86 nM | COC[C@H](c1ccnc(NC(=O)[C@@H](NC(=O)c2ccnn2C(C)C)C(C2CC2)C2CC2)c1)N1C[C@@H](C(F)(F)F)NC1=O [Example 229, N-((S)-1,1-dicyclopropyl-3-((4-((S)-2-methoxy-1-((S)-2-oxo-4-(trifluoromethyl)imidazolidin-1-yl)ethyl)pyridin-2-yl)amino)-3-oxopropan-2-yl)-1-isopropyl-1H-pyrazole-5-carboxamide]
24 | 62 nM | COC[C@H](c1ccnc(NC(=O)C(NC(=O)c2nocc2C)C2CCC(F)CC2)c1)N1C[C@@H](C(F)(F)F)NC1=O (single isomer, unassigned) [Example 284]
25 | 39 nM | C[C@H]1CC[C@H]([C@H](NC(=O)c2nonc2C2CC2)C(=O)Nc2cc(C(CO)N3C[C@@H](C(F)(F)F)NC3=O)ccn2)CC1 (single isomer, unassigned) [Example 234, 4-Cyclopropyl-N-((1S)-2-((4-((R or S)-2-hydroxy-1-((S)-2-oxo-4-(trifluoromethyl)imidazolidin-1-yl)ethyl)pyridin-2-yl)amino)-1-((1r,4S)-4-methylcyclohexyl)-2-oxoethyl)-1,2,5-oxadiazole-3-carboxamide]
26 | 6 nM | COCC(c1ccnc(NC(=O)[C@@H](NC(=O)c2nonc2C)[C@H]2CC[C@H](C)CC2)c1)N1C[C@@H](C(F)(F)F)NC1=O (single isomer, unassigned) [Example 86]
27 | 4 nM | CCc1nonc1C(=O)N[C@H](C(=O)Nc1cc(C(COC)N2C[C@@H](C(F)(F)F)NC2=O)ccn1)[C@H]1CC[C@H](C)CC1 (single isomer, unassigned) [Example 88]
